From doi:10.1101/2025.10.24.684310v1 (biorxiv, 2025) come the findings set out here.

Data set [1] in a line: in vitro. Conditions: PAMPA. In general terms: In PAMPA a lipid-coated filter parts donor from acceptor wells.
Data set [2] is described as follows: in vitro. The settings on record: PAMPA. This is another data set of the same source.
The next data set concerns the target hERG (Homo sapiens, UniProt Q12809, species not given). The data set can be described thus: hERG channel inhibition. The format is cell-based. On the technique in general: Block of hERG is tested as a sign of cardiac risk.
In the next data set the target is CYP2C9 (Homo sapiens, UniProt P11712). The data set can be described thus: in vitro.
The target in a further data set is T1, CYP1A2 (Homo sapiens, UniProt P05177).
T1 sequence (P05177 1-516): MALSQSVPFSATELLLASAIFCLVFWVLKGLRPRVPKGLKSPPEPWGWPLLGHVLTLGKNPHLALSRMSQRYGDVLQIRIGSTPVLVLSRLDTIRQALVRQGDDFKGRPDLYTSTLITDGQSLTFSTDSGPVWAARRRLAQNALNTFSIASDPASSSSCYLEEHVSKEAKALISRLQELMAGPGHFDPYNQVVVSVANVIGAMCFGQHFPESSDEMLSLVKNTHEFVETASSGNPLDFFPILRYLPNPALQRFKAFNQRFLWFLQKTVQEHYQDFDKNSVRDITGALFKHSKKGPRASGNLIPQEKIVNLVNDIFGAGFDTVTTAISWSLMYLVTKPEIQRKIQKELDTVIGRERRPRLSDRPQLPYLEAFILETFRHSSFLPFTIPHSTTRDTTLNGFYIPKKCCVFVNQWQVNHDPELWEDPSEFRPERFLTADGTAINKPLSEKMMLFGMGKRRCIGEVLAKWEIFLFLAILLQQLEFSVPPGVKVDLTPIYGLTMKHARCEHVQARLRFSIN
The data set can be described thus: in vitro.

The next data set concerns the target CYP2C19 (Homo sapiens, UniProt P33261). The data set can be described thus: in vitro.
The target of a further data set is CYP2D6 (Homo sapiens, UniProt P10635). The experiment in a line: in vitro.
The nature of data set [3]: in vitro. Conditions: human, liver microsomes. On the technique in general: Liver microsomes are vesicles of endoplasmic reticulum, rich in cytochrome P450 enzymes.
Data set [4] can be described thus: in vitro. The settings on record: human, liver microsomes. The source holds these as a separate data set.
Data set [5] can be described thus: in vitro. Conditions: human, liver microsomes. The source holds these as a separate data set.

A value given as a limit tells only on which side of the number the result lay.

hERG, sequence (Q12809 whole entry): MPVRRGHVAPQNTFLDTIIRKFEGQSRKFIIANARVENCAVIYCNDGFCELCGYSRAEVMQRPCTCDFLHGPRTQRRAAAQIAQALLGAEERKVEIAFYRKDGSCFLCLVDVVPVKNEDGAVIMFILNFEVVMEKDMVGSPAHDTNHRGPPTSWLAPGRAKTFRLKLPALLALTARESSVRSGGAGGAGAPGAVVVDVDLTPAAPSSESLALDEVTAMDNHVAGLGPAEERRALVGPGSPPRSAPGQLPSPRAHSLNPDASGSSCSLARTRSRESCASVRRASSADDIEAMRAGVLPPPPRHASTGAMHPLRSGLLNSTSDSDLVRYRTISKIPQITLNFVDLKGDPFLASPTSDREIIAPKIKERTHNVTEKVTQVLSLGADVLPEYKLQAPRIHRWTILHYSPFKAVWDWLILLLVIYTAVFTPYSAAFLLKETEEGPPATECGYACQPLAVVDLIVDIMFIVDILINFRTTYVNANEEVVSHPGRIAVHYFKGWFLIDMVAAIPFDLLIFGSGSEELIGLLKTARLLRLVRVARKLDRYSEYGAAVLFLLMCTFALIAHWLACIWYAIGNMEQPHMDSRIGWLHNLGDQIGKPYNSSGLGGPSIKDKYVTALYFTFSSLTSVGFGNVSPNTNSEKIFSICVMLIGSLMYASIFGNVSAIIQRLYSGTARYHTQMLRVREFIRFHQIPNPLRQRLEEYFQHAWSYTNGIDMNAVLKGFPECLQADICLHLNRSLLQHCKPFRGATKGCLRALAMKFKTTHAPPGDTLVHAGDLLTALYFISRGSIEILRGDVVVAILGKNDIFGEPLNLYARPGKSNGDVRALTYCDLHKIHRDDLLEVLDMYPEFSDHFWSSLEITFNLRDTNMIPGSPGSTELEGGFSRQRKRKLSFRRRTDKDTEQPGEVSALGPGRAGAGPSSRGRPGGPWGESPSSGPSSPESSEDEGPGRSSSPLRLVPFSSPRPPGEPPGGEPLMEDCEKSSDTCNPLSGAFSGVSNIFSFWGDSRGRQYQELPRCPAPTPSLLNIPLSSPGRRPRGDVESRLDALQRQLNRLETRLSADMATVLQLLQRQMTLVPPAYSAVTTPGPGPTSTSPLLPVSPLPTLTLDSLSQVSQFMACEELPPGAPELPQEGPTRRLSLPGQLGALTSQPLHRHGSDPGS
CYP2C9, sequence (P11712 whole entry): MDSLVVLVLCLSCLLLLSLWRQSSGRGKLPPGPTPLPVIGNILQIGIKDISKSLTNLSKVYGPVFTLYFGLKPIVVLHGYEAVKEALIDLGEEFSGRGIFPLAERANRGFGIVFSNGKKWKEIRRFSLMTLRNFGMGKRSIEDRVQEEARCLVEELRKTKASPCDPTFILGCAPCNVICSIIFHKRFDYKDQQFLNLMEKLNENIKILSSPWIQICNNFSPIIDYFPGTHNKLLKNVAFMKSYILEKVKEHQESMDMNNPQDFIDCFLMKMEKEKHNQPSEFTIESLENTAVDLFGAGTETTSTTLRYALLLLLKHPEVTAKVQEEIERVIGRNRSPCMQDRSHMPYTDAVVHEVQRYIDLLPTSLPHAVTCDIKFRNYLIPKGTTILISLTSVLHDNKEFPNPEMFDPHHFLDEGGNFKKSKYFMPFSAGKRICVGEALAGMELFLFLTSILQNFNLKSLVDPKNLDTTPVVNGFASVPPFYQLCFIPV
CYP2D6, sequence (P10635 whole entry): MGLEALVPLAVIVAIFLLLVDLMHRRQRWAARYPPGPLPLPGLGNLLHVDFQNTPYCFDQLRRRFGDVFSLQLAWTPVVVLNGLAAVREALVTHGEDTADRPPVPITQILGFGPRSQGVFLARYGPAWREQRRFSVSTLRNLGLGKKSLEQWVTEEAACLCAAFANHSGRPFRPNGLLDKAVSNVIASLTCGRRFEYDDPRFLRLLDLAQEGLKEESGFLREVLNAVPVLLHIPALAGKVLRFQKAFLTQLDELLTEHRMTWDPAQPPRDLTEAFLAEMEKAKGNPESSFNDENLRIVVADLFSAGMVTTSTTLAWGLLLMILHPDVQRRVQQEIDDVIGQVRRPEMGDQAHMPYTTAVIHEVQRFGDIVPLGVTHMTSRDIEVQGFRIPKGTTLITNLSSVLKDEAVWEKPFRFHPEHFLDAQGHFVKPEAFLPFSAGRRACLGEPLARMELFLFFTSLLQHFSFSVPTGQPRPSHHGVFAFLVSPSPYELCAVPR
CYP2C19, sequence (P33261 whole entry): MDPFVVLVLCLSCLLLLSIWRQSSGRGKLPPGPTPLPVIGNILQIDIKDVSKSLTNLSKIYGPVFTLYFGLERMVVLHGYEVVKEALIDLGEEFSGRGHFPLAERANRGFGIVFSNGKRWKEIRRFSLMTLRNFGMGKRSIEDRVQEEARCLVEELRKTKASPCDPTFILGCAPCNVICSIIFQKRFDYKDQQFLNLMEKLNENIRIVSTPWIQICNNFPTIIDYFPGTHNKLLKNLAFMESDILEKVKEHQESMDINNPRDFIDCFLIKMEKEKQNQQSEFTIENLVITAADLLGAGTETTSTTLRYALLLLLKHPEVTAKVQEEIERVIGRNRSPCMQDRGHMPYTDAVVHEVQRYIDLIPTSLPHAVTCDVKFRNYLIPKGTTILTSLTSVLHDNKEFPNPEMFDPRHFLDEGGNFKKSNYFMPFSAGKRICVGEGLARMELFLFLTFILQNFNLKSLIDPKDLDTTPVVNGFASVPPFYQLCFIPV

On to `CCOC(=O)C1=C(C)NC(=S)NC1c1ccc(F)cc1` (stereo not shown) [T13], for which the Papp (usually a coefficient for how fast a substance crosses the barrier) in “in vitro [1]” came to 18.4 ± 1.6 ×10⁻⁶ cm/s.
In the data set “in vitro [2]”, `COc1ccc(C2NC(=S)NC(C)=C2C(=O)Nc2ccc(Cl)cc2)cc1` (stereo not shown) [CT3] registered a Papp of 3.4 ± 0.3 ×10⁻⁶ cm/s.
Consider `CCOC(=O)C1=C(C)NC(=S)NC1c1ccc(OC)cc1` (stereo not shown) [T3], for which the IC50 (commonly the midpoint of a concentration-inhibition curve) against hERG was more than 10 µM. The compound also yielded a Papp in the data set “in vitro [1]” of 8.1 ± 0.5 ×10⁻⁶ cm/s.
For `CCOC(=O)C1=C(C)NC(=S)NC1c1ccc(OC)cc1` (stereo not shown) [T3, Ethyl 4-(4-methoxyphenyl)-6-methyl-2-thioxo-1,2,3,4-tetrahydropyrimidine-5-carboxylate], the inhibition (in general, the drop in the measured response relative to a control, in per cent) at 1 µM against CYP2C9 is 3.7 ± 1.1%; at CYP1A2, -13.3 ± 2%; against CYP2C19, 11.7 ± 4.5%; on CYP2D6 it was -3.2 ± 0.2%.
Turning to `CCOC(=O)C1=C(C)NC(=O)NC1c1cccc(O)c1` (stereo not shown) [U13], in “in vitro [1]”, the Papp is 0.003 ± 0.001 ×10⁻⁶ cm/s.
Still for that read-out and setting: as for `CCOC(=O)C1=C(C)NC(=O)NC1c1ccc(F)cc1` (stereo not shown) [U14], the figure is 6.2 ± 0.3 ×10⁻⁶ cm/s.
Take `CCOC(=O)C1=C(C)NC(=S)NC1c1ccc(Cl)cc1` (stereo not shown) [T2]: the fraction remaining (in general, the share of the starting amount still present when the sample was taken) at 1 h in the data set “in vitro [3]” amounted to 77.7%. Moreover, at hERG, the IC50 was more than 10 µM. In addition, the half-life (as a rule, the time in which the quantity being followed falls by half) in “in vitro [4]” is 2.36 h. For the same compound, in the data set “in vitro [5]”, the microsomal CLint – broadly, a measure of how fast metabolising enzymes remove a compound, apart from limits set by blood flow – came out at 7.8 µL/min/mg. The compound also displayed a Papp in the data set “in vitro [1]” of 12.2 ± 0.7 ×10⁻⁶ cm/s.
Take `CC1=C(C(=O)Nc2ccc(Cl)cc2)C(c2ccc(Cl)c(Cl)c2)NC(=S)N1` (stereo not shown) [CT5]: the Papp in the data set “in vitro [2]” came out at 7.6 ± 1 ×10⁻⁶ cm/s.
Same read-out and setting: as for `CC1=C(C(=O)Nc2ccc(Cl)cc2)C(c2ccc(Cl)cc2)NC(=O)N1` (stereo not shown) [CU2], the figure is 7.7 ± 0.2 ×10⁻⁶ cm/s.
In turn, `CCOC(=O)C1=C(C)NC(=O)NC1c1ccc(F)cc1` (stereo not shown) [U14, Ethyl 4-(4-fluorophenyl)-6-methyl-2-oxo-1,2,3,4-tetrahydropyrimidine-5-carboxylate] showed a share remaining at 1 h in the data set “in vitro [3]” of 74.1%. The half-life in the data set “in vitro [4]” was 2.47 h. The compound further showed a microsomal CLint in “in vitro [5]” of 5.4 µL/min/mg.
With `CCOC(=O)C1=C(C)NC(=O)NC1c1ccc(Cl)c(Cl)c1` (stereo not shown) [U5], in “in vitro [1]”, the Papp turned out to be 15.8 ± 0.5 ×10⁻⁶ cm/s.
Same read-out and setting: the value for `COC(=O)C1=C(C)NC(=S)NC1c1cccc(OC)c1` (stereo not shown) [T14] was 3.5 ± 0.6 ×10⁻⁶ cm/s.
`CC1=C(C(=O)Nc2ccc(Cl)cc2)C(c2ccc(Cl)c(Cl)c2)NC(=O)N1` (stereo not shown) [CU5]: in the data set “in vitro [2]”, the Papp came to 13.6 ± 0.5 ×10⁻⁶ cm/s.
The same measure, in the same setting: as for `CC1=C(C(=O)Nc2ccc(Cl)cc2)C(c2ccc(C)cc2)NC(=S)N1` (stereo not shown) [CT4], the figure is 4.6 ± 0.2 ×10⁻⁶ cm/s.
`CCOC(=O)C1=C(C)NC(=S)NC1c1ccc(OCC)cc1` (stereo not shown) [T10] registered a Papp in the data set “in vitro [1]” of 0.1 ×10⁻⁶ cm/s.
On the same count and under the same terms, the value for `CCOC(=O)C1=C(C)NC(=O)NC1c1ccc(C(F)(F)F)cc1` (stereo not shown) [U6] was 11.5 ± 0.4 ×10⁻⁶ cm/s.
In “in vitro [2]”, `CC1=C(C(=O)Nc2ccc(Cl)cc2)C(c2ccccc2)NC(=O)N1` (stereo not shown) [CU1] displayed a Papp of 9.5 ± 0.2 ×10⁻⁶ cm/s.
Compound `COC(=O)C1=C(C)NC(=O)NC1c1cccc(Br)c1` (stereo not shown) [U12] showed a Papp in “in vitro [1]” of 2 ± 0.2 ×10⁻⁶ cm/s.
`COC(=O)C1=C(C)NC(=O)NC1c1ccccc1` (stereo not shown) [U15, Methyl 6-methyl-2-oxo-4-phenyl-1,2,3,4-tetrahydropyrimidine-5-carboxylate]: the amount remaining at 1 h in “in vitro [3]” was 93%. In “in vitro [4]”, this compound had a half-life of 10.7 h. Besides, the microsomal CLint in the data set “in vitro [5]” is 1.2 µL/min/mg.
In turn, `CC1=C(C(=O)Nc2ccc(Cl)cc2)C(c2ccc(C)cc2)NC(=O)N1` (stereo not shown) [CU4] had a Papp in “in vitro [2]” of 5.3 ± 0.2 ×10⁻⁶ cm/s.
In turn, `CCOC(=O)C1=C(C)NC(=S)NC1c1ccc(Cl)c(Cl)c1` (stereo not shown) [T5] registered a Papp in “in vitro [1]” of 16.2 ± 0.5 ×10⁻⁶ cm/s.
In turn, `CC1=C(C(=O)Nc2ccc(Cl)cc2)C(c2ccccc2)NC(=S)N1` (stereo not shown) [CT1] gave a Papp in the data set “in vitro [2]” of 3.6 ± 0.1 ×10⁻⁶ cm/s.
On to `CCOC(=O)C1=C(C)NC(=O)NC1c1ccc(Cl)cc1Cl` (stereo not shown) [U7], for which the Papp in “in vitro [1]” was 15.3 ± 1 ×10⁻⁶ cm/s.
In the case of `CCOC(=O)C1=C(C)NC(=S)NC1c1ccccc1Cl` (stereo not shown) [T9, Ethyl 4-(2-chlorophenyl)-6-methyl-2-thioxo-1,2,3,4-tetrahydropyrimidine-5-carboxylate], the amount remaining at 1 h in “in vitro [3]” stood at 82.4%. Moreover, the half-life in “in vitro [4]” came out at 3.69 h. In “in vitro [5]”, this compound registered a microsomal CLint of 3 µL/min/mg.
`CCOC(=O)C1=C(C)NC(=S)NC1c1ccc(C)cc1` (stereo not shown) [T4] had a Papp in “in vitro [1]” of 10.3 ± 0.3 ×10⁻⁶ cm/s.
The same measure, in the same setting: as for `CCOC(=O)C1=C(C)NC(=S)NC1c1ccc(C(F)(F)F)cc1` (stereo not shown) [T6], the figure is more than 30 ×10⁻⁶ cm/s.
In “in vitro [2]”, `CC1=C(C(=O)Nc2ccc(Cl)cc2)C(c2ccc(Cl)cc2)NC(=S)N1` (stereo not shown) [CT2] registered a Papp of 7.1 ± 0.1 ×10⁻⁶ cm/s.
The same measure, in the same setting: as for `COc1ccc(C2NC(=O)NC(C)=C2C(=O)Nc2ccc(Cl)cc2)cc1` (stereo not shown) [CU3], the figure is 5.9 ± 0.2 ×10⁻⁶ cm/s.
For the compound `CCOC(=O)C1=C(C)NC(=S)NC1c1cccc(O)c1` (stereo not shown) [T12], the Papp in “in vitro [1]” worked out at 17.7 ± 0.9 ×10⁻⁶ cm/s.
